Measurements from the Kinase Knowledgebase extract (Sharma et al. 2016).

Target: CDK2 (UniProt P24941)
Test: Enzyme Assay

Row | IC50 [µM] | SMILES
1 | < 0.1 | CN1CCN(c2ccc(Nc3nccc(-c4cnn5ncccc45)n3)cc2Cl)CC1
2 | < 1 | COc1ccc2c(-c3ccnc(NC4CC4)n3)cnn2n1
3 | < 0.1 | O=[N+]([O-])c1cccc(Nc2nccc(-c3cnn4ncccc34)n2)c1
4 | < 1 | Clc1ccccc1-c1ccc2c(-c3ccnc(NC4CC4)n3)cnn2n1
5 | < 0.1 | c1cc(Nc2nccc(-c3cnn4ncccc34)n2)cc(-c2cnco2)c1
6 | < 0.1 | Clc1ccc(Nc2nccc(-c3cnn4ncccc34)n2)cc1
7 | < 0.1 | Cc1cc(Nc2nccc(-c3cnn4ncccc34)n2)ccc1N1CCN(C)CC1
8 | < 0.1 | NS(=O)(=O)c1ccc(Nc2nccc(-c3cnn4ncccc34)n2)cc1
9 | < 0.1 | N#Cc1cccc(Nc2nccc(-c3cnn4ncccc34)n2)c1
10 | < 0.1 | O=C1CCCN1CCCNc1nccc(-c2cnn3ncccc23)n1
11 | < 1 | CN(C)c1ccc(Nc2nccc(-c3cnn4nc(N5CCOCC5)ccc34)n2)cc1
12 | < 0.1 | FC(F)(F)c1cccc(Nc2nccc(-c3cnn4ncccc34)n2)c1
